We go through two molecules from patent publication US8071507B2, “Plant growth regulating and fungicidal compositions” (Syngenta Crop Protection, Inc., priority 2005, dated 2011).

Common to all, as to assay type: in vivo
Test [1] has as its system Rye. The experiment in a line: Plant growth regulation (PGR), pre-emergence, rye. The settings on record: 14 days. The method, then:
(§1) The compounds are sprayed with a vertical boom sprayer at the mentioned rates (ref. result-tables) pre-plant on the bare soil, then they are incorporated into the soil and the plants are seeded.

The subject of test [2] is Oilseed Rape. Put plainly: Plant growth regulation (PGR), pre-emergence, oilseed rape. The settings on record: 14 days. The method, then:
as §1

Test [3] has as its system Winter rape “Colza d'hiver Aviso”. The experiment in a line: Plant growth regulation (PGR), post-emergence, winter rape. The settings on record: 14 days after application. As for the experimental part:
(§2) The plants are seeded and grown in a greenhouse until Growth Stage 12 (2 leafs unfolded). Then the compounds/mixture of the compounds are sprayed with a vertical boom sprayer top over the leafs.

Test [4] has as its system Summer rape “Hybridol”. Put plainly: Plant growth regulation (PGR), post-emergence, summer rape. Conditions: 14 days after application. The method, then:
as §2

The subject of test [5] is Oat. Put plainly: Plant growth regulation (PGR), pre-emergence, oat. The settings on record: 14 days. As for the experimental part: as §1
Test [6] has as its system Soybean. Put plainly: Plant growth regulation (PGR), pre-emergence, soybean. Conditions: 14 days. The method, then: as §1
Test [7] has as its system Triticale. The experiment in a line: Plant growth regulation (PGR), pre-emergence, triticale. Conditions: 14 days. The method, then: as §1
The test system of test [8] is Barley. The experiment in a line: Plant growth regulation (PGR), pre-emergence, barley. The settings on record: 14 days. As for the experimental part:
as §1

Test [9] concerns Wheat. The experiment in a line: Plant growth regulation (PGR), pre-emergence, wheat. The settings on record: 14 days. The method, then: as §1

For the molecule `CC(C)(C)[C@@H](O)[C@@H](Cc1ccc(Cl)cc1)n1cncn1` (racemic) [Paclobutrazole, (2RS,3RS)-1-(4-chlorophenyl)-4,4-dimethyl-2-(1H-1,2,4-triazol-1-yl)-pentan-3-ol], the “Observed PGR in % (% Cobs)” value in test [1] (Paclobutrazole 25 mg/L) is listed as 25%; in [1] (Paclobutrazole 50 mg/L), 40%; in test [2] (Paclobutrazole 12.5 mg/L) it was 40%; in test [2] (Paclobutrazole 25 mg/L) it was 50%; in [2] (Paclobutrazole 50 mg/L), 55%; in [3] (Paclobutrazole 31.3 g a.i./ha), 30%. Also, the “Observed PGR in % (% Cobs)” value in test [3] (Paclobutrazole 62.5 g a.i./ha) came out at 33%; in test [4] (Paclobutrazole 31.3 g a.i./ha), 17%; in [4] (Paclobutrazole 62.5 g a.i./ha) it was 23%; in test [5] (Paclobutrazole 25 mg/L), 30%; in test [5] (Paclobutrazole 50 mg/L), 40%; in test [6] (Paclobutrazole 25 mg/L), 30%. The “Observed PGR in % (% Cobs)” value in [6] (Paclobutrazole 50 mg/L) is given as 50%; in [7] (Paclobutrazole 25 mg/L), 10%; in [7] (Paclobutrazole 50 mg/L) it was 30%; in [8] (Paclobutrazole 12.5 mg/L), 0%; in test [8] (Paclobutrazole 25 mg/L), 10%; in test [8] (Paclobutrazole 50 mg/L), 30%. Besides, the “Observed PGR in % (% Cobs)” value in test [9] (Paclobutrazole 12.5 mg/L) amounted to 20%; in test [9] (Paclobutrazole 25 mg/L), 25%; in [9] (Paclobutrazole 50 mg/L), 40%.
Take `CC1COC(Cn2cncn2)(c2ccc(Oc3ccc(Cl)cc3)cc2Cl)O1` (stereo not drawn) [Difenoconazole, 1-[2-[2-chloro-4-(4-chlorophenoxy)phenyl]-4-methyl-1,3-dioxolan-2-ylmethyl]-1H-1,2,4-triazole]: the “Observed PGR in % (% Cobs)” value in test [1] (Difenoconazole 50 mg/L), in test [1] (Difenoconazole 100 mg/L), in test [2] (Difenoconazole 25 mg/L), in test [2] (Difenoconazole 50 mg/L), in test [2] (Difenoconazole 100 mg/L) and in [3] (Difenoconazole 62.5 g a.i./ha) was 0% throughout. Also, the “Observed PGR in % (% Cobs)” value in test [3] (Difenoconazole 125 g a.i./ha), in [4] (Difenoconazole 62.5 g a.i./ha), in test [4] (Difenoconazole 125 g a.i./ha), in test [5] (Difenoconazole 50 mg/L), in test [5] (Difenoconazole 100 mg/L) and in [6] (Difenoconazole 50 mg/L) was 0% throughout. Moreover, the “Observed PGR in % (% Cobs)” value in test [6] (Difenoconazole 100 mg/L), in [7] (Difenoconazole 50 mg/L), in test [7] (Difenoconazole 100 mg/L), in test [8] (Difenoconazole 25 mg/L), in test [8] (Difenoconazole 50 mg/L) and in test [8] (Difenoconazole 100 mg/L) was 0% throughout. For the same molecule, the “Observed PGR in % (% Cobs)” value in test [9] (Difenoconazole 25 mg/L), in test [9] (Difenoconazole 50 mg/L) and in test [9] (Difenoconazole 100 mg/L) was 0% throughout.
